Calls of active or inactive are those of the source. The rule behind the calls is not given here.
Assays:
Mus musculus [1] = test: Inhibition of carrageenan-induced thermal allodynia in Swiss mouse at 1 mg/kg, ip pretreated for 30 mins followed by carrageenan-stimulation and measured after 6 hrs; type: functional, organism-based
Mus musculus [2] = test: Inhibition of carrageenan-induced paw edema in Swiss mouse at 1 mg/kg, ip pretreated for 30 mins followed by carrageenan-stimulation and measured after 6 hrs; type: functional, organism-based
Mus musculus [3] = test: Inhibition of zymosan-induced TLR2/Dectin-1 Signaling Pathway assessed as reduction in paw edema in Swiss mouse at 50 mg/kg, po pretreated for 1 hr followed by […] and measured after 48 hrs relative to control; type: functional
Mus musculus [4] = test: Inhibition of carrageenan-induced paw edema in Swiss mouse at 50 mg/kg, po pretreated for 30 mins followed by carrageenan-stimulation and co-treated with CB2R antagonist AM630 and measured after 6 hrs; type: functional, organism-based
[5] = Toxicity in Swiss mouse assessed as reduction in locomotion at 1000 mg/kg, po after 14 days; type: organism-based; settings: in vivo, 336 h
[6] = Toxicity in Swiss mouse assessed as reduction in locomotion at 2000 mg/kg, po after 14 days; type: organism-based; settings: in vivo, 336 h
[7] = Toxicity in Swiss mouse assessed as effect on kidney weight at 5 to 2000 mg/kg, po after 14 days; type: organism-based; settings: in vivo, 336 h
[8] = Toxicity in Swiss mouse assessed as effect on lung weight at 5 to 2000 mg/kg, po after 14 days; type: organism-based; settings: in vivo, 336 h
[9] = Toxicity in Swiss mouse assessed as effect on touch sensitivity at 2000 mg/kg, po after 14 days; type: organism-based; settings: in vivo, 336 h
[10] = Toxicity in Swiss mouse assessed as water consumption at 1000 mg/kg, po after 14 days (reference value: 50.5%); type: organism-based; settings: in vivo, 336 h
[11] = Psychoactive effect in Swiss mouse assessed as reduction in locomotor activity by measuring change in distance travelled at 50 mg/kg, po and measured for 6 hrs; type: ADME, organism-based; settings: in vivo
[12] = Toxicity in Swiss mouse assessed as increase in weight gain at 5 to 2000 mg/kg, po after 14 days; type: organism-based; settings: in vivo, 336 h
Mus musculus [13] = test: Inhibition of carrageenan-induced thermal allodynia in Swiss mouse at 50 mg/kg, po pretreated for 30 mins followed by carrageenan-stimulation and co-treated with CB2R antagonist AM630 and measured after 6 hrs; type: functional, organism-based
Mus musculus [14] = test: Inhibition of croton oil-induced ear edema in mouse at 0.1 mg/ear administered topically pretreated for 1 hr followed by croton oil-stimulation and measured after 6 hrs relative to control; type: functional
Mus musculus [15] = test: Inhibition of carrageenan-induced paw edema in Swiss mouse at 50 mg/kg, po pretreated for 30 mins followed by carrageenan-stimulation and co-treated with CB1R antagonist AM281 and measured after 6 hrs; type: functional, organism-based
[16] = Psychoactive effect in Swiss mouse assessed as hypothermic effects at 50 mg/kg, po and measured for 6 hrs by thermometric method; type: ADME, organism-based; settings: in vivo
[17] = Toxicity in Swiss mouse assessed as effect on triglycerides level weight at 5 to 2000 mg/kg, po after 14 days; type: organism-based; settings: in vivo, 336 h
Mus musculus [18] = test: Inhibition of carrageenan-induced thermal allodynia in Swiss mouse at 50 mg/kg, po pretreated for 30 mins followed by carrageenan-stimulation and co-treated with CB1R antagonist AM281 and measured after 6 hrs; type: functional, organism-based
Mus musculus [19] = test: Inhibition of carrageenan-induced thermal allodynia in Swiss mouse at 50 mg/kg, po pretreated for 30 mins followed by carrageenan-stimulation and co-treated glibenclamide and measured after 6 hrs; type: functional, organism-based
[20] = Toxicity in Swiss mouse assessed as food consumption at 5 mg/kg, po after 14 days (reference value: 27.3%); type: organism-based; settings: in vivo, 336 h
Mus musculus [21] = test: Inhibition of carrageenan-induced thermal allodynia in Swiss mouse at 100 mg/kg, po pretreated for 1 hr followed by carrageenan-stimulation and measured after 6 hrs relative to control; type: functional
Mus musculus [22] = test: Inhibition of carrageenan-induced thermal allodynia in Swiss mouse at 50 mg/kg, po pretreated for 1 hr followed by carrageenan-stimulation and measured after 6 hrs relative to control; type: functional
[23] = Toxicity in Swiss mouse assessed as water consumption at 50 mg/kg, po after 14 days (reference value: 50.5%); type: organism-based; settings: in vivo, 336 h
[24] = Toxicity in Swiss mouse assessed as effect on uric acid level weight at 5 to 2000 mg/kg, po after 14 days; type: organism-based; settings: in vivo, 336 h
[25] = Toxicity in Swiss mouse assessed as effect on respiratory movement at 1000 mg/kg, po after 14 days; type: organism-based; settings: in vivo, 336 h
[26] = Toxicity in Swiss mouse assessed as effect on ALT level weight at 5 to 2000 mg/kg, po after 14 days; type: organism-based; settings: in vivo, 336 h
[27] = Psychoactive effect in Swiss mouse assessed as antinociceptive effect by measuring paw withdrawal latencies at 50 mg/kg, po and measured for 6 hrs; type: ADME, organism-based; settings: in vivo
[28] = Toxicity in Swiss mouse assessed as effect on touch sensitivity at 1000 mg/kg, po after 14 days; type: organism-based; settings: in vivo, 336 h
[29] = Toxicity in Swiss mouse assessed as mortality at 5 to 1000 mg/kg, po after 14 days; type: organism-based; settings: in vivo, 336 h
[30] = Toxicity in Swiss mouse assessed as effect on total cholesterol level weight at 5 to 2000 mg/kg, po after 14 days; type: organism-based; settings: in vivo, 336 h
Mus musculus [31] = test: Inhibition of LPS-induced TLR4 pathway assessed as reduction in paw edema in Swiss mouse at 50 mg/kg, po pretreated for 1 hr followed by LPS-stimulation and measured after 48 hrs relative to control; type: functional
Mus musculus [32] = test: Inhibition of carrageenan-induced paw edema in Swiss mouse at 300 mg/kg, po pretreated for 1 hr followed by carrageenan-stimulation and measured after 6 hrs relative to control; type: functional
[33] = Toxicity in Swiss mouse assessed as effect on AST level weight at 5 to 2000 mg/kg, po after 14 days; type: organism-based; settings: in vivo, 336 h
Mus musculus [34] = test: Inhibition of carrageenan-induced paw edema in Swiss mouse at 50 mg/kg, po pretreated for 30 mins followed by carrageenan-stimulation and co-treated with glibenclamide and measured after 6 hrs; type: functional, organism-based
[35] = Toxicity in Swiss mouse assessed as effect on paradoxical breathing at 2000 mg/kg, po after 14 days; type: organism-based; settings: in vivo, 336 h
[36] = Toxicity in Swiss mouse assessed as food consumption at 300 mg/kg, po after 14 days (reference value: 27.3%); type: organism-based; settings: in vivo, 336 h
Mus musculus [37] = test: Inhibition of carrageenan-induced paw edema in Swiss mouse at 100 mg/kg, po pretreated for 1 hr followed by carrageenan-stimulation and measured after 6 hrs relative to control; type: functional
[38] = Toxicity in Swiss mouse assessed as food consumption at 50 mg/kg, po after 14 days (reference value: 27.3%); type: organism-based; settings: in vivo, 336 h
Mus musculus [39] = test: Inhibition of croton oil-induced ear edema in mouse at 0.3 mg/ear administered topically pretreated for 1 hr followed by croton oil-stimulation and measured after 6 hrs relative to control; type: functional
[40] = Toxicity in Swiss mouse assessed as effect on total protein level weight at 5 to 2000 mg/kg, po after 14 days; type: organism-based; settings: in vivo, 336 h
Mus musculus [41] = test: Inhibition of carrageenan-induced paw edema in Swiss mouse at 50 mg/kg, po pretreated for 1 hr followed by carrageenan-stimulation and measured after 6 hrs relative to control; type: functional
[42] = Toxicity in Swiss mouse assessed as water consumption at 300 mg/kg, po after 14 days (reference value: 50.5%); type: organism-based; settings: in vivo, 336 h
Mus musculus [43] = test: Inhibition of carrageenan-induced thermal allodynia in Swiss mouse at 300 mg/kg, po pretreated for 1 hr followed by carrageenan-stimulation and measured after 6 hrs relative to control; type: functional
[44] = Toxicity in Swiss mouse assessed as water consumption at 2000 mg/kg, po after 14 days (reference value: 50.5%); type: organism-based; settings: in vivo, 336 h
[45] = Toxicity in Swiss mouse assessed as effect on blood urea nitrogen level weight at 5 to 2000 mg/kg, po after 14 days; type: organism-based; settings: in vivo, 336 h
[46] = Toxicity in Swiss mouse assessed as effect on creatinine level weight at 5 to 2000 mg/kg, po after 14 days; type: organism-based; settings: in vivo, 336 h
[47] = Toxicity in Swiss mouse assessed as effect on glucose level weight at 5 to 2000 mg/kg, po after 14 days; type: organism-based; settings: in vivo, 336 h
[48] = Toxicity in Swiss mouse assessed as effect on liver weight at 5 to 2000 mg/kg, po after 14 days; type: organism-based; settings: in vivo, 336 h
[49] = Psychoactive effect in Swiss mouse assessed as catalepsy effect at 50 mg/kg, po and measured for 6 hrs; type: ADME, organism-based; settings: in vivo
[50] = Toxicity in Swiss mouse assessed as water consumption at 5 mg/kg, po after 14 days (reference value: 50.5%); type: organism-based; settings: in vivo, 336 h
[51] = Toxicity in Swiss mouse assessed as food consumption at 2000 mg/kg, po after 14 days (reference value: 27.3%); type: organism-based; settings: in vivo, 336 h
[52] = Toxicity in Swiss mouse assessed as effect on heart weight at 5 to 2000 mg/kg, po after 14 days; type: organism-based; settings: in vivo, 336 h
[53] = Toxicity in Swiss mouse assessed as food consumption at 1000 mg/kg, po after 14 days (reference value: 27.3%); type: organism-based; settings: in vivo, 336 h
[54] = Toxicity in Swiss mouse assessed as effect on ALP level weight at 5 to 2000 mg/kg, po after 14 days; type: organism-based; settings: in vivo, 336 h

COc1ccc(C(=O)c2c(C)n(CCN3CCOCC3)c3cc(I)ccc23)cc1
inhibition (Mus musculus [1]): inactive | inhibition (Mus musculus [2]): inactive

CC(C)=CCCC(C)=CC=O (mixture of isomers)
inhibition in vivo at 50 mg/kg (Mus musculus [3]): 45% | inhibition (Mus musculus [4]): inactive | Activity [5]: Non-Toxic | Activity [6]: Non-Toxic | Activity [7]: Non-Toxic | Activity [8]: Non-Toxic | Activity [9]: Non-Toxic | Activity [10]: 40% | Activity [11]: Non-Toxic | Activity [12]: Non-Toxic | inhibition (Mus musculus [13]): inactive | inhibition (INH) (Mus musculus [14]): 22% | inhibition (Mus musculus [15]): Active | Activity [16]: Non-Toxic | Activity [17]: Non-Toxic | inhibition (Mus musculus [18]): Active | inhibition (Mus musculus [19]): inactive | Activity [20]: 31.2% | inhibition in vivo at 100 mg/kg (Mus musculus [21]): 80% | inhibition in vivo at 50 mg/kg (Mus musculus [22]): 62% | Activity [23]: 37.5% | Activity [24]: Non-Toxic | Activity [25]: Non-Toxic | Activity [26]: Non-Toxic | Activity [27]: Non-Toxic | Activity [28]: Non-Toxic | Activity [29]: Non-Toxic | Activity [30]: Non-Toxic | inhibition in vivo at 50 mg/kg (Mus musculus [31]): 70% | inhibition in vivo at 300 mg/kg (Mus musculus [32]): 66% | Activity [33]: Non-Toxic | inhibition (Mus musculus [34]): inactive | Activity [35]: Non-Toxic | Activity [36]: 28.1% | inhibition in vivo at 100 mg/kg (Mus musculus [37]): 70% | Activity [38]: 21.4% | inhibition (INH) (Mus musculus [39]): 83% | Activity [40]: Non-Toxic | inhibition in vivo at 50 mg/kg (Mus musculus [41]): 57% | Activity [42]: 36% | inhibition in vivo at 300 mg/kg (Mus musculus [43]): 62% | Activity [44]: 15.6% | Activity [45]: Non-Toxic | Activity [46]: Non-Toxic | Activity [47]: Non-Toxic | Activity [48]: Non-Toxic | Activity [49]: Non-Toxic | Activity [50]: 44.4% | Activity [51]: 8.8% | Activity [52]: Non-Toxic | Activity [53]: 28.1% | Activity [54]: Non-Toxic
